Reference: publication PMC10144058, “New Hybrid Scaffolds Based on 5-FU/Curcumin: Synthesis, Cytotoxic, Antiproliferative and Pro-Apoptotic Effect” (Pharmaceutics, 2023)
Like-named read-outs stand apart in the source and are kept apart here.

Experiments:
U937 cell line = tested on: U937 cell line; design: method as in PMID 33213229; settings: cited from earlier work
K562 cell line = tested on: K562 cell line; design: method as in PMID 33213229; settings: cited from earlier work
HL-60 cell line = tested on: HL-60 cell line; design: method as in PMID 33213229; settings: cited from earlier work
HCT116 cells = tested on: HCT116 cells; design: method as in PMID 31097715; settings: cited from earlier work
[1] = tested on: HCEC non-malignant epithelial cells; design: method as in PMID 31097715; settings: HCEC non-malignant corneal epithelial cells; cited from earlier work
SW480 cells [2] = assay: Cell viability, sulforhodamine B (SRB) assay; format: cell-based; settings: Homo sapiens
Method: (§1) SW480 (colon adenocarcinoma) and SW620 (derived metastatic) malignant cell lines, and the non-malignant lines HaCaT (human keratinocytes) and CHO-K1 (Chinese Hamster Ovary), were obtained from the European Collection of Authenticated Cell Cultures (ECACC, Porton Down, Salisbury, UK). The cells were maintained in Dulbecco’s Modified Eagle’s Medium (DMEM), supplemented with 10% equine serum previously inactivated at 56 °C, 1% penicillin/streptomycin, and 1% non-essential amino acids, and incubated at 37 °C in an atmosphere with 5% CO2. To carry out the experiments, the serum was diluted to 3% and additionally supplemented with […] insulin, […] transferrin, and 5 ng/mL selenium. Cells were used for experimentation when they reached 80–90% confluence, using a 1X trypsin enzymatic disintegration method. To avoid contamination by Mycoplasma spp., cell cultures were periodically analyzed by polymerase chain reaction (PCR).
(§2) Cell viability was evaluated with a sulforhodamine B (SRB) assay. This technique provides an index of protein contents in living and adherent cells, whose optical density can be related to cell concentration. Initially, 20,000 cells were seeded per well in 96-well culture plates. An initial adherence period of 24 h was performed at 37 °C, 5% CO2, and after this, the medium was replaced by another that contained the hybrid compounds in different concentrations. Then, the cells were left incubating for 24 and 48 h under the same conditions previously described. After the respective incubation times, the cells were fixed with trichloroacetic acid (50% v/v) for 1 h at 4 °C and stained with 0.4% (p/v) of SRB. Subsequently, washings with 1% acetic acid were carried out to eliminate possible nonspecific bindings, and after solubilization with 10 mM Tris-base, the absorbance was read at 492 nm in a microplate reader (Mindray MR-96A). All the experiments were carried out in triplicate.

HaCaT cells = assay: Cell viability, sulforhodamine B (SRB) assay, non-malignant cells; format: cell-based; settings: Homo sapiens
Method: as §1, §2

CHO-K1 cells = assay: as above; format: cell-based, Chinese Hamster; settings: Cricetulus griseus
Method: as §1, §2

SW620 cells = assay: Cell viability, sulforhodamine B (SRB) assay; format: cell-based, human; settings: Homo sapiens
Method: as §1, §2

[3] = tested on: caspase 3, caspase 7, caspase 8 and p53 in SW480 cells; assay: Apoptotic biomarkers (ELISA); format: cell-based, human; settings: SW480, treated with IC50, 48 h, vs control
Method: To provide an approach to the possible molecular mechanisms through which the hybrid compounds induce an effect on the cell lines, different proteins related to the process of death by apoptosis were determined. For this method, 1,000,000 cells were initially seeded per Petri dish, with an adherence period of 24 h at 37 °C in a 5% CO2 atmosphere. […] Later, the consumed medium was discarded, and after the addition of the versene buffer, the cells were obtained by mechanical disaggregation. The cells were then lysed with a cell lysis buffer and centrifuged to obtain the supernatant, which was used to determine the biomarkers of interest by enzyme-linked immunosorbent assays. These ELISA kits were provided by Elabscience Biotechnology Co., Houston, TX, USA [26].

SW480 cells [4] = assay: Mitochondrial membrane potential (DiOC6/PI, flow cytometry); format: cell-based, human; settings: SW480, treated with IC50, 48 h
Method: The fluorescent dyes PI and DIOC6 (3,3’-dihexyloxacarbocyanine iodide) were used to observe the depolarization of the mitochondrial membrane as well as possible cell membrane damage. For this method, 250,000 cells/well were initially seeded in 6-well culture plates during a 24 h adherence period at 37 °C in a 5% CO2 atmosphere. […] After treatment, cells were obtained by mechanical disaggregation, stained with DiOC6 and PI, and incubated at room temperature for 30 min in the dark. Ten thousand events were analyzed by flow cytometry with excitation at 488 nm and emission detection with green (530/15 nm) and red (610/20 nm) filters.

SW480 cells [5] = assay: Antiproliferative activity (SRB, 0-8 days); format: cell-based; settings: Homo sapiens, read-out: Cell Viability (%) ± SE; for viability at 2.5 µM: SW480, 2.5 µM; for viability at 40 µM: SW480, 40 µM
Method: For this experiment, the same colorimetric method (SRB) from the evaluation of cell viability was used, although with some modifications. Initially, 2500 cells per well were seeded in 96-well culture plates, and a 24 h adherence period was performed at 37 °C in a 5% CO2 atmosphere. […] For this assay, incubation periods of 0, 2, 4, 6, and 8 days were used, and the fixation, staining, and reading conditions were the same as those previously described for the cytotoxicity assay.

SW480 cells [6] = assay: Cell cycle analysis (PI, flow cytometry); format: cell-based, human; settings: SW480, treated with IC50 value, 48 h
Method: The method used for the recognition of cell cycle phases (G0/G1, S, G2/M) was based on staining with a fluorescent dye (propidium iodide—PI), as a direct relationship between fluorescence intensity and DNA content can be established. For this method, 250,000 cells/well were initially seeded in 6-well culture plates with an adherence period of 24 h at 37 °C in a 5% CO2 atmosphere. […] After treatment, cells were obtained by mechanical disaggregation, and the cell pellet was centrifuged and washed with a versene buffer. The cell pellet was fixed with 1.8 mL of cold 70% ethanol and kept at 4 °C overnight. Subsequently, two washes with a versene buffer were performed, and the pellet was resuspended in 300 µL of PBS containing 0.25 mg/mL of RNAsa and 0.1 mg/mL of PI. After a 30 min period of dark incubation, the fluorescence of 10,000 cells was analyzed using a FACS Canto II flow cytometer. The PI signal was analyzed with excitation at 488 nm using a sapphire laser, and fluorescence was detected at 610 nm. The data analysis was performed with FlowJo 10.8.1 software.

For `CC1(C)CCC(C)(C)c2cc(NC(=O)c3ccc(C(=O)OCn4cc(F)c(=O)[nH]c4=O)cc3)ccc21` [B], the IC50 (U937 cell line) is listed as 8.21 µM, the IC50 (K562 cell line) is listed as 10.6 µM and the IC50 (HL-60 cell line) is listed as 9.87 µM.

For `CC1=C(CCC(=O)OCn2cc(F)c(=O)[nH]c2=O)C(=O)C(C(C)C)=CC1=O` [C], the IC50 (HCT116 cells) is given as 16 µM and the IC50 [1] is given as 52 µM.

With `O=c1[nH]cc(F)c(=O)[nH]1` [Compound 5-FU, 5-fluorouracil, reference compound] the IC50 (SW480 cells [2]; SW480, 24 h) was 1540 ± 128 µM, the IC50 (SW480 cells [2]; SW480, 48 h) was 174 ± 19.1 µM and the IC50 (HaCaT cells; 24 h) was > 1000 µM. The IC50 (HaCaT cells; 48 h) was 119 ± 2.84 µM, the IC50 (CHO-K1 cells; CHO-K1, 24 h) was 544 ± 52.9 µM and the IC50 (CHO-K1 cells; CHO-K1, 48 h) was 173 ± 14.6 µM. It also gave an IC50 (SW620 cells; SW-620, 24 h, 24 h) of 899 ± 60.7 µM and an IC50 (SW620 cells; SW-620, 48 h, 48 h) of 181 ± 18.8 µM.

`COc1cc(/C=C/C(=O)c2ccc(OCCn3cc(Cn4cc(F)c(=O)[nH]c4=O)nn3)cc2)ccc1O` [Compound 6a, (E)-5-fluoro-1-((1-(2-(4-(3-(4-hydroxy-3-methoxyphenyl)acryloyl)phenoxy)ethyl)-1H-1,2,3-triazol-4-yl)methyl)pyrimidine-2,4(1H,3H)-dione] showed an IC50 (SW480 cells [2]; SW480, 24 h) of 75.3 ± 4.65 µM, an IC50 (SW480 cells [2]; SW480, 48 h) of 17.4 ± 1.16 µM and an IC50 (HaCaT cells; 24 h) of 71.8 ± 4.22 µM. For the same compound, the IC50 (HaCaT cells; 48 h) was 27.9 ± 2.53 µM, the “levels of biomarkers (caspase 3, caspase 7, caspase 8, p53)” value [3] was “no significant differences” and the IC50 (CHO-K1 cells; CHO-K1, 24 h) was 82.8 ± 6.43 µM. For the same compound, the IC50 (CHO-K1 cells; CHO-K1, 48 h) was 73.7 ± 1.07 µM, the “Dioc6 High population (live cells with high membrane polarization)” value (SW480 cells [4]) was 84.9% and the “Dioc6 Low population (cells that lose membrane polarization)” value (SW480 cells [4]) was 0%. For the same compound, the “PI+ population (membrane damage or dead cells)” value (SW480 cells [4]) was 15%, the “changes in the mitochondrial membrane potential” value (SW480 cells [4]) was “do not induce significant changes” and the viability at 2.5 µM (SW480 cells [5]; 48 h, 2 days after plating) was 97.9 ± 1.55%. For the same compound, the viability at 40 µM (SW480 cells [5]; 48 h, 2 days after plating) was 16.2 ± 2.51%, the viability at 2.5 µM (SW480 cells [5]; 96 h, 4 days after plating) was 81.2 ± 2.8% and the viability at 40 µM (SW480 cells [5]; 96 h, 4 days after plating) was 8 ± 1.81%. It also gave a viability at 2.5 µM (SW480 cells [5]; 144 h, 6 days after plating) of 59.5 ± 3.45%, a viability at 40 µM (SW480 cells [5]; 144 h, 6 days after plating) of 2.04 ± 0.35% and a viability at 2.5 µM (SW480 cells [5]; 192 h, 8 days after plating) of 42.8 ± 1.3%. For the same compound, the viability at 40 µM (SW480 cells [5]; 192 h, 8 days after plating) was 0%, the IC50 (SW620 cells; SW-620, 24 h, 24 h) was > 100 µM and the IC50 (SW620 cells; SW-620, 48 h, 48 h) was 45.1 ± 0.98 µM. The “Cell cycle distribution, G0/G1” value (SW480 cells [6]) was 53.6%, the “Cell cycle distribution, G2/M” value (SW480 cells [6]) was 22.2% and the “Cell cycle distribution, S Phase” value (SW480 cells [6]) was 24.1%. The “Cell cycle distribution, Sub G0/G1” value (SW480 cells [6]) was 0%.

`COc1cc(/C=C/C(=O)c2ccc(OCCCn3cc(Cn4cc(F)c(=O)[nH]c4=O)nn3)cc2)ccc1O` [Compound 6b, (E)-5-fluoro-1-((1-(3-(4-(3-(4-hydroxy-3-methoxyphenyl)acryloyl)phenoxy)propyl)-1H-1,2,3-triazol-4-yl)methyl)pyrimidine-2,4(1H,3H)-dione] showed an IC50 (SW480 cells [2]; SW480, 24 h) of 48.4 ± 2.82 µM, an IC50 (SW480 cells [2]; SW480, 48 h) of 17.1 ± 0.8 µM and an IC50 (HaCaT cells; 24 h) of 58.1 ± 3.3 µM. The IC50 (HaCaT cells; 48 h) was 18.4 ± 1.1 µM, the IC50 (CHO-K1 cells; CHO-K1, 24 h) was 51.3 ± 2.86 µM and the IC50 (CHO-K1 cells; CHO-K1, 48 h) was 46.5 ± 1.34 µM. For the same compound, the melting point was 124 to 129 °C, the IC50 (SW620 cells; SW-620, 24 h, 24 h) was 90.2 ± 9.33 µM and the IC50 (SW620 cells; SW-620, 48 h, 48 h) was 33.7 ± 1.03 µM.
